Entries after “also recorded” stand apart in the source; their conditions may differ.
Columns and labels:
T cells = assay: T cell proliferation after tetanus toxoid antigen presentation from human DC in PBMC sample; format: cell-based; conditions: tetanus toxoid 1 ug/ul
STAT1 [1] = assay: Nitrated STAT1 by immunoblot after nitrated tyrosine immunoprecipitation in normal donor PBMC; format: cell-based; conditions: normal donor human PBMC
Description: An increased [nSTAT1]/[STAT1] ratio can be associated with resistance to anti-PD-1 therapy. Unfractionated PBMC samples are utilized for the mass spectrometry experiments as they are routinely collected from patients and with the expectation of STAT1 having increased nitration (FIG. 4). A second aliquot of PBMCs from the patients can be stimulated in parallel with IFN and subsequent downstream activation determined via measurement of phosphorylated STAT1. Activation of STAT1 can be measured by intracellular staining for activated (i.e. phosphorylated) STAT1 using flow cytometry. IFN responsiveness decreases by ~30% in metastatic cancer patients. There is an inverse relationship between the levels of pSTAT1 and levels of nitrated STAT1. As a control, STAT1 nitration can be measured in normal donor PBMCs treated with SNAP via immunoblot (FIG. 13). As such, PBMCs from melanoma patients can be compared to normal donors. […] Additional nitrated proteins can be quantified in the future via LC-MRM (Liquid Chromatography, multiple reaction monitoring) including the targets outlined in the introductory material (assay requires <200,000 cells); and can expand the list of which nitration events are important for response to anti-PD1 therapy in case STAT1 is not the only important target.

B16 melanoma cells = assay: Cytotoxicity of PMEL CD8 T cells against gp-100 coated B16 cells, flow cytometry; format: cell-based; conditions: 100 μM; p=0.02
Experimental: Cytoxicity was measured via flow cytometry with CellTrace™ Far Red (B16 cells) and a live/dead marker (Zombie™ Green).

[2] = tested on: antigen presentation from DCs to CD4+ T cells; assay: DC antigen presentation to OT-II CD4+ T cells, [3H]-thymidine incorporation; format: cell-based, mouse; conditions: for MDSC inhibition of antigen presentation in the presence of iNOS inhibitor: MDSCs derived from B16 melanoma, OVA peptide stimulus
Experimental: For space constraints only the OVA peptide stimulus is depicted in B and C.
The effects of NO on DC function using transgenic mice were evaluated that express a T cell receptor (TCR) specific for a defined antigen, namely OVA. […] Levels of SNAP or other NO donors such as deta-NONOate can be adjusted to mimic the physiological concentration of NO within MDSCs and be utilized to directly measure binding of tetramers to the TCR complex. To simulate a real world scenario of antigen expressed naturally by the B16 tumors as advised by the reviewers, We can utilize transgenic mice that express a T cell receptor (TCR) specific for the Tyrosinase-Related Protein 1 (Trp-1).

B16 melanoma = assay: PD-1 refractory B16 melanoma model; format: in vivo, mouse
Description: NCX-4016 is a nitroaspirin and inhibits the nitric oxide synthase via a negative feedback mechanism. These compounds are available for clinical trial use, and have a toxicity profile that is favorable for evaluation in patients with advanced malignancies. I predict nitroaspirin compounds in combination with anti-PD-1 therapy can rescue the ability to stimulate CD4^+ T cells and decrease tumor growth. […] We can use nitroaspirin alone and along with anti-PD-1 in therapeutically achievable doses in the murine B16 melanoma model to measure tumor growth curves and obtain specimens for analyses.

STAT1 [3] = assay: pSTAT1 flow cytometry of normal donor PBMCs stimulated with interferon-alpha; format: cell-based, human
Experimental: FIGS. 20A, 20B, and 20C show Interferon-alpha stimulation of normal donors PBMCs.
(§1) Flow cytometry and mass spectrometry analyses. Flow cytometric analysis of pSTAT1 and liquid chromatography-tandem mass spectrometry (LC-MS-MS) analysis of nitrated STAT1 (nSTAT1) were conducted on all samples. For flow cytometry studies, frozen PBMCs were thawed at 37° C., washed with culturing media, and allowed to rest overnight in complete media at 5% CO2 at 37° C. PBMCs were stimulated with interferon-α (Miltenyi Biotec, Cambridge, MA) at 0, 10^2 U/mL, and 10^4 U/mL and incubated for 15 minutes in media.
(§2) The live/dead marker Zombie NIR (BioLegend, San Diego, CA) was used before permeabilization to distinguish live cells. The samples were permeabilized using the FIX & PERM Cell Permeabilization Kit with methanol modification (Fisher Scientific, Hampton, MA) and fixed at −20° C. for a minimum of 2 hours. pSTAT1 was detected by a pSTAT1 antibody (AF488; BD Biosciences, San Jose, CA). Flow cytometry data were collected either on Canto or LSRII flow cytometers (BD Biosciences, San Jose, CA), and data were analyzed in FCS Express (De Novo Software, Pasadena, CA). Measurement of patient-derived PBMCs for nSTAT1 and native STAT1 via LC-MS-MS SRM experiments was performed. […]

[4] = tested on: resected stages IIIC/IV melanoma; assay: Phase II trial of adjuvant ipilimumab with a peptide vaccine, clinical outcome; format: in vivo, human
Experimental: Patient samples. […] Peripheral blood leukocytes were collected before initiation of ipilimumab treatment and at approximately 150 days after the first treatment. PBMCs were available and were de-identified before inclusion in our current study.
Statistical analyses. We conducted statistical analyses to determine whether there is a relationship between levels of pSTAT1, nSTAT1, and RFS. Survival outcome was summarized using Kaplan-Meier method and log-rank test was performed to evaluate the association of survival outcome with pSTAT1 and nSTAT1 levels dichotomized by the median-split method. […] Levene's F-test for the homogeneity of variance was used to compare variance of pSTAT1 level among patients with different RFS rates. Patients were also stratified using the median-split method for a survival comparison analysis of [nSTAT1]post-[nSTAT1]pre with ipilimumab treatment. […] A two-sided P value of <0.05 was considered statistically significant. Treatment outcome is reported at the end of the follow up period for the parent trial (5 years).
Patient demographics. Pre- and post-therapy PBMCs were available from 35 patients with resected stages IIIC/IV melanoma.

STAT1 [5] = assay: pSTAT1 flow cytometry of patient PBMCs pre versus post ipilimumab; format: in vivo, human
Experimental: FIGS. 22A, 22B, and 22C show the paired pSTAT1 level pre versus post ipilimumab treatment without (FIG. 22A) Interferon-alpha stimulation, after (FIG. 22B) 10^2 U/mL Interferon-alpha stimulation, and (FIG. 22C) 10^4 U/mL Interferon-alpha stimulation.
as §1
as §2, with “CA).” for “CA). Measurement of patient-derived PBMCs for nSTAT1 and native STAT1 via LC-MS-MS SRM experiments was performed.”

[6] = tested on: stage IIIB through IV melanoma; conditions: adjuvant, cited from earlier work; for 12-month RFS rate: stage IIIB through IV melanoma
stage III melanoma = conditions: cited from earlier work
[7] = n = 35, end of follow up period (5 years)

CC(=O)NC(C(=O)O)C(C)(C)SN=O (racemic) [SNAP, S-Nitroso-N-Acetyl-D,L-Penicillamine]
proliferation of T cells after antigen presentation of tetanus toxoid (T cells): decreases proliferation of T cells
levels of nitrated STAT1 (STAT1 [1]): elevated levels of nitrated STAT1
cytotoxicity of target B16 melanoma cells by effector PMEL CD8 T cells (B16 melanoma cells): reduced
DC antigen presentation to CD4+ T cells (proliferation of OT-II T cells) ([2]; nitric oxide donor SNAP, DCs and CD4+ T cells ratio 1:4 from OT-II mouse): inhibit DC antigen presentation to CD4+ T cells

COC(=O)[C@@H](N)CCCNC(=N)N[N+](=O)[O-] [L-NAME, L-nitroarginine methyl ester]
MDSC inhibition of antigen presentation in the presence of iNOS inhibitor [2]: this effect was abrogated

CC(=O)Oc1ccccc1C(=O)Oc1cccc(CO[N+](=O)[O-])c1 [NCX-4016]
iNOS expression with iNOS inhibitor in-vivo (B16 melanoma; B16 melanoma model): iNOS expression is decreased
efficacy in combination with anti-PD1 blockade (B16 melanoma; PD-1 refractory B16 melanoma model, combination with anti-PD-1): more efficacious than either treatment alone; also recorded: increases the efficacy of anti-PD1 blockade
MDSC inhibition of antigen presentation in the presence of iNOS inhibitor [2]: this effect was abrogated

interferon-α
pSTAT1 levels with increasing interferon levels (STAT1 [3]): concentration-dependent increase in pSTAT1 levels
concentration showing near-maximum phosphorylation of STAT1 (STAT1 [3]; 15 minutes of treatment): 500 U/ml

ipilimumab: Monoclonal antibody against CTLA-4
RFS, 3 mg/kg vs 10 mg/kg ([4]; Log rank P-value=0.96): no statistical significant differences in RFS
Treatment outcome AWD (alive with disease), Percentage [4, 7]: 6%
Treatment outcome DOD (died of disease), Percentage [4, 7]: 17%
Treatment outcome NED (no evidence of disease), Percentage [4, 7]: 77%
levels of STAT1 pre versus post treatment (STAT1 [5]; 10 mg/kg cohort, t-test, p<0.01): statistically significant increase
changes in pSTAT1 between the 10 mg/kg and 3 mg/kg cohorts (STAT1 [5]; 150 days post treatment): no statistically significant changes in pSTAT1
12-month RFS rate [6]: 60.8%

nivolumab: Monoclonal antibody against PD-1
12-month RFS rate [6]: 70.5%
toxicity compared to ipilimumab [6]: significantly decreased toxicity

pembrolizumab: Monoclonal antibody against PD-1
efficacy compared to interferon-α or ipilimumab (stage III melanoma): increased efficacy

— patent US20260283997A1, “METHODS FOR INHIBITING RESISTANCE TO IMMUNE BLOCKADE INHIBITOR THERAPY” (H. LEE MOFFITT CANCER CENTER AND RESEARCH INSTITUTE, INC., priority 2023, published 2026)
